For assay [1], the target named is T1, CB1 receptors (Mus musculus, UniProt P47746). The experiment in a line: Inhibition of EPSCs. The note with it: for maximal suppression of EPSC, % of baseline: at 1 μM, mean ± S.E.M.; for IC50: read-out: IC50 of EPSC suppression, autaptic hippocampal neurons, mean (95% CI). Format: cell-based.
Assay [2] concerns the target CB1 receptors (Rattus norvegicus, UniProt P20272). The experiment in a line: CB1 receptor internalization in HEK293 cells stably expressing CB1. Format: cell-based. The note with it: for plateau / maximal internalization in time course: 100 nM drug, up to 6 hours; for plateau / maximal internalization in time course / maximal internalization (Emax): mean ± S.E.M.; for maximal internalization (Emax) / EC50: 2 hour treatment; for maximal internalization (Emax): at 1 μM; for EC50: read-out: EC50 of CB1 internalization, mean (95% CI).

Assay [3] addresses T1, CB1 receptors. The note with it: at 1 μM; ref Atwood et al., 2010; cited from earlier work.

Values joined by “and” are separate entries in the source; they are usually repeats but may differ in a detail not shown here. Equal entries are not always repeated.

As usually defined, the IC50 is the midpoint of a concentration-inhibition curve. The EC50 is the concentration giving half of the maximal effect.

T1 sequence (P47746 whole entry): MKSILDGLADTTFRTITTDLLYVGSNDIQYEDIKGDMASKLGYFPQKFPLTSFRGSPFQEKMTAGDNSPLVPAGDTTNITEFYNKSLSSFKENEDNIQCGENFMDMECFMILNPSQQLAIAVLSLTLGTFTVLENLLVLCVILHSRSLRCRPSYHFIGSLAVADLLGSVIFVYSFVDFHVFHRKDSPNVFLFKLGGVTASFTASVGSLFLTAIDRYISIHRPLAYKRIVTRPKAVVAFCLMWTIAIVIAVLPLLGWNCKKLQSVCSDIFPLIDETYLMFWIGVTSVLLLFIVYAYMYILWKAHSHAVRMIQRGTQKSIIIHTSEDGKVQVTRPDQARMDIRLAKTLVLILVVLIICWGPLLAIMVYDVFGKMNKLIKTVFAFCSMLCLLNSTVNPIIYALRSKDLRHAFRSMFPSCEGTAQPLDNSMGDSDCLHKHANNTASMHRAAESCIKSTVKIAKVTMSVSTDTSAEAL
Chain of CB1 receptors (Rattus norvegicus, UniProt P20272) (P20272 whole entry): as the sequence (P47746 whole entry) above, with D95E counted along it

For `CCCCCCCC(C)(C)c1ccc([C@H]2CCC[C@@H](O)C2)c(O)c1` [CP47,497-C8], on CB1 receptors [1], the “maximal suppression of EPSC, % of baseline” value is 51.6 ± 8.0 % of baseline and 51.6 % of baseline; the IC50 was 15.4 nM. On CB1 receptors [2], the “plateau / maximal internalization in time course” value (“plateau / maximal internalization” for short) is 51.4 ± 2.2 % of basal surface levels, the “maximal internalization (Emax)” value is on record as 52.7 ± 4.3 % of basal surface levels and the EC50 stood at 4.4 nM.

Turning to `CCCCCn1cc(C(=O)c2cccc3ccccc23)c2ccccc21` [JWH018], on CB1 receptors [2], the “plateau / maximal internalization” value is listed as 50.7 ± 2.6 % of basal surface levels, the “maximal internalization (Emax)” value is listed as 45.2 ± 2.0 % of basal surface levels and the concentration for a half-maximal effect (EC50) came out at 10.1 nM. The “maximal decrease of EPSC magnitude” value on CB1 receptors [3] was 48.0%.

For the compound `CCCCn1cc(C(=O)c2cccc3ccccc23)c2ccccc21` [JWH073], on CB1 receptors [1], the “maximal suppression of EPSC, % of baseline” value was 31.5 ± 4.0 % of baseline and the concentration for half-maximal inhibition (IC50) turned out to be 49.4 nM. Besides, at CB1 receptors [2], the “plateau / maximal internalization” value was 57.5 ± 3.1 % of basal surface levels, the “maximal internalization (Emax)” value is 61.2 ± 2.5 % of basal surface levels and the EC50 was determined as 45.6 nM.

As to `CCCCCCCC(C)(C)c1ccc([C@H]2CCC[C@@H](O)C2)c(O)c1` [cis-CP47,497-C8], on CB1 receptors [2], the “plateau / maximal internalization” value is 48.4 ± 2.4 % of basal surface levels, the “maximal internalization (Emax)” value was 53.8 ± 2.4 % of basal surface levels and the EC50 was 1.9 nM.

In the case of `CCCCCCCC(C)(C)c1ccc([C@@H]2CCC[C@@H](O)C2)c(O)c1` [trans-CP47,497-C8], on CB1 receptors [2], the “plateau / maximal internalization” value was 47.7 ± 3.1 % of basal surface levels, the “maximal internalization (Emax)” value is listed as 54.9 ± 3.7 % of basal surface levels and the EC50 was determined as 2.7 nM.

The record behind these values is paper PMC3094488 (European journal of pharmacology, 2011).
